The numbers were not newly measured in patent publication US6949518B1, “Methods for treating macular degeneration with topiramate” (priority 2003, dated 2005), which cites them from elsewhere.

Each structure is given as a SMILES string.

The conditions of data set [1]: elimination predominantly unchanged via the renal route.
Data set [2] relates to carbonic anhydrase.
Data set [3] deals with patients with type 2 diabetes.

Take `CC1(C)O[C@@H]2[C@@H](CO[C@@]3(COS(N)(=O)=O)OC(C)(C)O[C@@H]23)O1` [topiramate, 2,3:4,5-Di-O-isopropylidene-β-D-fructopyranose sulfamate]: the “plasma t½” value in data set [1] is 20 to 30 h. In addition, for the setting “organic solvents”, the “solubility in acetone, chloroform, dimethylsulfoxide, and ethanol” value is recorded as “freely soluble”. The “pH of saturated solution” value (saturated solution) is listed as 6.3. Moreover, the carbonic anhydrase inhibition result in data set [2] was “weak carbonic anhydrase inhibitor”. In data set [3] (by the end of trial), the dendrite length result is “increased” and the peroneal nerve amplitude entry is recorded as “increased”. Also, the total neuropathy scores in data set [3] (end of trial, decreased from baseline 14, 11 patients, 25 mg/day titrated over 42 days to maximum tolerated dose or 100 mg/day, then 84 more days) is reported as 11.8.
